# “Also recorded” adds a separate entry of the source.
# How the values were obtained:
# [1] = system: U373 cells; experiment: Determination of cell adhesion (cell detachment assay with Methyl violet); assay type: cell-based, human; conditions: for effect on cell adhesion; additives: effect on the Octenisept® induced reduction: U373, 1 hour, Octenisept® alone or 1:1 with additive 5%, 5 μl to 100 μl medium, FIG. 3
# Method: The humane glioblastoma cell line U373 was cultured in Dulbecco's Modified Eagle Medium (DMEM) supplemented with 10% PCS (Gibco™), 2 mM glutamine (PPA) and 100 U/ml penicillin/streptomycin (PAA) at 37° and 5% CO2. The cells were cultivated in monolayer and passaged at 80% confluence. Before carrying out the cell adhesion experiments the cells were transferred onto 96-well plates and brought to confluence.
# Cell adhesion was carried out as described in detail in the quotation (Uchide, N. and Toyoda H., (2007) J Immunol Methods, 328 (1-2): 215-9). U373 cells were incubated in 96-well plates with Octenisept® (final concentration 5% (v/v) Octenisept®, this equates 0.005% octenidine dihydrochloride) alone or with the specified additives (5% v/v) for 1 hour in glucose-free Leibovitz medium. After removing the supernatant the standardized washing procedure was executed 3 times after which PBS was added with a motor-controlled pipet which led to the detachment of non-adhesive cells. Afterward only those cells whose matrix had formed a solid connection were fixed with glutaraldehyde and after removal of the glutaraldehyde stained with Methyl violet. The precipitated stain was dissolved with an SDS buffer and the extinction was measured at 550 nm in an ELISA plate reader.
# It was now examined whether this additive ensures effects which can contribute to the improvement of wound healing. U373 cells were incubated for 1 hour in Leibovitz medium with Octenisept® alone or with additives (1:1 with glucose 5% or NaCl 0.9%). In each case 5 μl of the respective solution was added to 100 μl of medium. After washing and staining of the adherent cells with crystal violet the extinction was measured at 550 nm (FIG. 2a). The extinction of the controls was set to 1. Statistical significances were determined with Bonferroni's Multiple Comparison Test (**: p<0.01, ***<0.001).
# Polyalcohols form a broad compound class and it was therefore examined whether single subgroups have different effects in the adhesion test. U373 cells were incubated in Leibovitz medium with 5 μl additive to 100 μl medium in each case for 1 hour with Octenisept® alone (−) or with additives (1:1 with polyalcohol 5%, glucose, 2-deoxyglucose (2-deoxyG.), lactose, saccharose, fructose, glucuronic acid, polyethylene glycol (PEG), chondroitin-4-sulfate (ch.4-s.), chondroitin-6-sulfate (ch.-6-s.) dermatan sulfate (dermatan-s.) or dextran sulfate (dextran-s.)). After washing and staining of the adherent cells with Methyl violet the extinction was measured at 550 nm. (Bars represent the mean value±SD of two independent experiments (measured in triplicates)). The extinction of the controls was set to 1. Statistical significances were determined with Bonferroni's Multiple Comparison Test (**: p<0.01, ***<0.001).
# U373 cells were incubated for one hour with Octenisept® (1:20 in medium) alone (G0) or with Octenisept® and different volumes of a 5% glucose solution (resulting final dilution 1:200-1:2 in Leibovitz medium).
# [2] = Precipitation assay of Octenisept® with NaCl or carbohydrates; assay type: physicochemical; conditions: equal parts Octenisept® and diluent (5%), 4° C.
# Method: The stability of the solubility of the components of Octenisept® in NaCl solution as an indicator for their interaction was determined through the analysis of the precipitates. After the co-incubation of Octenisept® with equal parts of 0.9% w/v NaCl or 5% carbohydrates in sterile aqua bidest for 3, 12, 24 and 72 hours at 4° C. the solutions were centrifuged at 2500 rpm for 5 minutes and the precipitate, if existing, was analyzed with the Zeiss inverted microscope with a digital camera with the METAVIEW micro-photography documentation system.
# [3] = concentration series with glucose, FIG. 4
Compound,effect on cell adhesion; additives: effect on the Octenisept® induced reduction [1],other results
polyethylene glycol,improved,effect on cell adhesion; additives: effect on the Octenisept® induced reduction ([1]; listed as PEG): slight reduction of the positive effect
O=C(CO)[C@@H](O)[C@H](O)[C@H](O)CO [fructose],improved,–
chondroitin-6-sulfate,significantly reduced the adhesion to under the values of NaCl,–
O=C[C@H](O)[C@@H](O)[C@H](O)[C@H](O)C(=O)O [glucuronic acid],improved,effect on cell adhesion; additives: effect on the Octenisept® induced reduction ([1]; listed as Glucuronic acid): positive effect
OC[C@H]1O[C@@](CO)(O[C@H]2O[C@H](CO)[C@@H](O)[C@H](O)[C@H]2O)[C@@H](O)[C@@H]1O [saccharose],improved; also recorded: without impairing the effect,–
heparan sulfate,–,sediment / crystals / turbidity of Octenisept® mixed with diluent [2]: quick micro-crystalline or colloidal turbidity
chondroitin-4-sulfate,significantly reduced the adhesion to under the values of NaCl,–
dermatan sulfate,significantly reduced the adhesion to under the values of NaCl,sediment / crystals / turbidity of Octenisept® mixed with diluent [2]: quick micro-crystalline or colloidal turbidity
OC[C@H]1O[C@@H](O[C@H]2[C@H](O)[C@@H](O)C(O)O[C@@H]2CO)[C@H](O)[C@@H](O)[C@H]1O (some centres unmarked) [lactose],improved,–
O=CC[C@@H](O)[C@H](O)[C@H](O)CO [2-deoxyglucose],improved,–
dextran sulfate,significantly reduced the adhesion to under the values of NaCl,–
O=C[C@H](O)[C@@H](O)[C@H](O)[C@H](O)CO [glucose],improved,"effect of glucose addition on Octenisept® reduced cell adherence ([1]; 5% glucose solution, final dilution 1:200 or 1:100, FIG. 4): tendentially improved; optimal glucose addition, final concentration [1, 3]: 0.1%; optimal glucose addition, in the stock solution [1, 3]: 2%; optimal absolute glucose in the Octenisept solution ([1]; corresponds to dilution 1:20 of 5% glucose): 0.25%"
chondroitin sulfate,–,sediment / crystals / turbidity of Octenisept® mixed with diluent [2]: quick micro-crystalline or colloidal turbidity

# Reference: patent publication US8940324B2, “Octenidine composition” (Artan Holding AG, priority 2008, dated 2015)
